# The supplement of paper PMC10883282
# ± gives the standard deviation of the averaged measurements.
# Tests used:
# Experiment in all cases: relative viability vs DMSO control (72 h) (fraction); higher = more viable cells
# MES-SA = system: MES-SA
# Outline: (§1)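 Serially diluted compound, 2.5 µl from source plates spanning 10 mM to 0.0002 mM, was added 24 h after sarcoma cell lines were seeded in 384-well plates at densities targeting 80–90% confluence. Plates then sat 72 h at 37 °C, 5% CO2, with 0.1% DMSO vehicle and a 5 µM positive control. Relative viability came from ATPLite as percent growth, averaged over up to triplicate wells, and was rescaled with 1 as full and 0 as none.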
# SK-LMS-1 = system: SK-LMS-1
# Outline: as §1
# SK-ES-1 = system: SK-ES-1
# Outline: as §1
# SYO-1 = system: SYO-1
# Outline: as §1
# SW1353 = system: SW1353
# Outline: as §1
# RD-ES = system: RD-ES
# Outline: as §1
# VA-ES-BJ = system: VA-ES-BJ
# Outline: as §1
# HT1080 = system: HT1080
# Outline: as §1
# RD = system: RD
# Outline: as §1
# KHOS-240S = system: KHOS-240S
# Outline: as §1
# SW982 = system: SW982
# Outline: as §1
# G401 = system: G401
# Outline: as §1
compound,measurement,setting,value
Cc1c(F)cc(C(=O)NC2CC2)cc1-c1ccc(C(=O)NCC(C)(C)C)cn1 [Losmapimod],relative viability,MES-SA; 0.00017 µM,0.997 ± 0.011
same,relative viability,MES-SA; 0.00051 µM,0.9963 ± 0.0047
same,relative viability,MES-SA; 0.00152 µM,0.967 ± 0.022
same,relative viability,MES-SA; 0.00457 µM,0.951 ± 0.023
same,relative viability,MES-SA; 0.01372 µM,0.96 ± 0.017
same,relative viability,MES-SA; 0.04115 µM,0.935 ± 0.044
same,relative viability,MES-SA; 0.1235 µM,0.9396 ± 0.0087
same,relative viability,MES-SA; 0.3704 µM,0.928 ± 0.022
same,relative viability,MES-SA; 1.111 µM,0.8915 ± 0.0037
same,relative viability,MES-SA; 3.333 µM,0.866 ± 0.03
same,relative viability,MES-SA; 10 µM,0.879 ± 0.03
same,relative viability,SK-LMS-1; 0.00017 µM,1.02 ± 0.024
same,relative viability,SK-LMS-1; 0.00051 µM,1.02 ± 0.031
same,relative viability,SK-LMS-1; 0.00152 µM,1.01 ± 0.068
same,relative viability,SK-LMS-1; 0.00457 µM,1 ± 0.041
same,relative viability,SK-LMS-1; 0.01372 µM,0.995 ± 0.044
same,relative viability,SK-LMS-1; 0.04115 µM,1.02 ± 0.06
same,relative viability,SK-LMS-1; 0.1235 µM,1.005 ± 0.0088
same,relative viability,SK-LMS-1; 0.3704 µM,0.978 ± 0.034
same,relative viability,SK-LMS-1; 1.111 µM,0.981 ± 0.072
same,relative viability,SK-LMS-1; 3.333 µM,0.967 ± 0.035
same,relative viability,SK-LMS-1; 10 µM,0.946 ± 0.021
same,relative viability,SK-ES-1; 0.00017 µM,1.08 ± 0.047
same,relative viability,SK-ES-1; 0.00051 µM,1.12 ± 0.019
same,relative viability,SK-ES-1; 0.00152 µM,1.09 ± 0.073
same,relative viability,SK-ES-1; 0.00457 µM,1.11 ± 0.054
same,relative viability,SK-ES-1; 0.01372 µM,1.07 ± 0.037
same,relative viability,SK-ES-1; 0.04115 µM,1.02 ± 0.036
same,relative viability,SK-ES-1; 0.1235 µM,1.01 ± 0.021
same,relative viability,SK-ES-1; 0.3704 µM,0.993 ± 0.036
same,relative viability,SK-ES-1; 1.111 µM,0.968 ± 0.047
same,relative viability,SK-ES-1; 3.333 µM,0.915 ± 0.046
same,relative viability,SK-ES-1; 10 µM,0.879 ± 0.045
same,relative viability,SYO-1; 0.00017 µM,0.993 ± 0.02
same,relative viability,SYO-1; 0.00051 µM,0.992 ± 0.028
same,relative viability,SYO-1; 0.00152 µM,0.975 ± 0.0099
same,relative viability,SYO-1; 0.00457 µM,0.975 ± 0.012
same,relative viability,SYO-1; 0.01372 µM,0.954 ± 0.028
same,relative viability,SYO-1; 0.04115 µM,0.957 ± 0.05
same,relative viability,SYO-1; 0.1235 µM,0.915 ± 0.024
same,relative viability,SYO-1; 0.3704 µM,0.865 ± 0.0094
same,relative viability,SYO-1; 1.111 µM,0.852 ± 0.034
same,relative viability,SYO-1; 3.333 µM,0.813 ± 0.017
same,relative viability,SYO-1; 10 µM,0.812 ± 0.069
same,relative viability,SW1353; 0.00017 µM,1.06 ± 0.051
same,relative viability,SW1353; 0.00051 µM,1.06 ± 0.025
same,relative viability,SW1353; 0.00152 µM,1.08 ± 0.036
same,relative viability,SW1353; 0.00457 µM,1.07 ± 0.035
same,relative viability,SW1353; 0.01372 µM,1.09 ± 0.031
same,relative viability,SW1353; 0.04115 µM,1.08 ± 0.02
same,relative viability,SW1353; 0.1235 µM,1.08 ± 0.014
same,relative viability,SW1353; 0.3704 µM,1.09 ± 0.018
same,relative viability,SW1353; 1.111 µM,1.079 ± 0.0044
same,relative viability,SW1353; 3.333 µM,1.07 ± 0.063
same,relative viability,SW1353; 10 µM,0.959 ± 0.14
same,relative viability,RD-ES; 0.00017 µM,1.01 ± 0.05
same,relative viability,RD-ES; 0.00051 µM,0.995 ± 0.012
same,relative viability,RD-ES; 0.00152 µM,1.02 ± 0.031
same,relative viability,RD-ES; 0.00457 µM,0.993 ± 0.025
same,relative viability,RD-ES; 0.01372 µM,0.998 ± 0.046
same,relative viability,RD-ES; 0.04115 µM,0.962 ± 0.043
same,relative viability,RD-ES; 0.1235 µM,0.947 ± 0.05
same,relative viability,RD-ES; 0.3704 µM,0.917 ± 0.012
same,relative viability,RD-ES; 1.111 µM,0.879 ± 0.013
same,relative viability,RD-ES; 3.333 µM,0.892 ± 0.011
same,relative viability,RD-ES; 10 µM,0.879 ± 0.019
same,relative viability,VA-ES-BJ; 0.00017 µM,1.11 ± 0.023
same,relative viability,VA-ES-BJ; 0.00051 µM,1.1 ± 0.026
same,relative viability,VA-ES-BJ; 0.00152 µM,1.07 ± 0.061
same,relative viability,VA-ES-BJ; 0.00457 µM,1.07 ± 0.055
same,relative viability,VA-ES-BJ; 0.01372 µM,1.07 ± 0.048
same,relative viability,VA-ES-BJ; 0.04115 µM,1.06 ± 0.046
same,relative viability,VA-ES-BJ; 0.1235 µM,0.988 ± 0.045
same,relative viability,VA-ES-BJ; 0.3704 µM,1.03 ± 0.017
same,relative viability,VA-ES-BJ; 1.111 µM,1.03 ± 0.063
same,relative viability,VA-ES-BJ; 3.333 µM,1.02 ± 0.068
same,relative viability,VA-ES-BJ; 10 µM,1 ± 0.032
same,relative viability,HT1080; 0.00017 µM,1.09 ± 0.049
same,relative viability,HT1080; 0.00051 µM,1.09 ± 0.012
same,relative viability,HT1080; 0.00152 µM,1.12 ± 0.022
same,relative viability,HT1080; 0.00457 µM,1.11 ± 0.021
same,relative viability,HT1080; 0.01372 µM,1.1 ± 0.017
same,relative viability,HT1080; 0.04115 µM,1.149 ± 0.0082
same,relative viability,HT1080; 0.1235 µM,1.16 ± 0.014
same,relative viability,HT1080; 0.3704 µM,1.13 ± 0.018
same,relative viability,HT1080; 1.111 µM,1.11 ± 0.023
same,relative viability,HT1080; 3.333 µM,1.09 ± 0.024
same,relative viability,HT1080; 10 µM,1.11 ± 0.023
same,relative viability,RD; 0.00017 µM,1.11 ± 0.06
same,relative viability,RD; 0.00051 µM,1.11 ± 0.038
same,relative viability,RD; 0.00152 µM,1.1 ± 0.04
same,relative viability,RD; 0.00457 µM,1.14 ± 0.014
same,relative viability,RD; 0.01372 µM,1.12 ± 0.033
same,relative viability,RD; 0.04115 µM,1.13 ± 0.017
same,relative viability,RD; 0.1235 µM,1.11 ± 0.012
same,relative viability,RD; 0.3704 µM,1.07 ± 0.04
same,relative viability,RD; 1.111 µM,1.08 ± 0.057
same,relative viability,RD; 3.333 µM,1.02 ± 0.061
same,relative viability,RD; 10 µM,1.07 ± 0.039
same,relative viability,KHOS-240S; 0.00017 µM,1.07 ± 0.037
same,relative viability,KHOS-240S; 0.00051 µM,1.1 ± 0.047
same,relative viability,KHOS-240S; 0.00152 µM,1.07 ± 0.029
same,relative viability,KHOS-240S; 0.00457 µM,1.09 ± 0.045
same,relative viability,KHOS-240S; 0.01372 µM,1.04 ± 0.033
same,relative viability,KHOS-240S; 0.04115 µM,1.06 ± 0.035
same,relative viability,KHOS-240S; 0.1235 µM,1.02 ± 0.042
same,relative viability,KHOS-240S; 0.3704 µM,1 ± 0.025
same,relative viability,KHOS-240S; 1.111 µM,0.951 ± 0.018
same,relative viability,KHOS-240S; 3.333 µM,0.97 ± 0.036
same,relative viability,KHOS-240S; 10 µM,0.893 ± 0.028
same,relative viability,SW982; 0.00017 µM,1.059 ± 0.0083
same,relative viability,SW982; 0.00051 µM,1.07 ± 0.026
same,relative viability,SW982; 0.00152 µM,1.09 ± 0.01
same,relative viability,SW982; 0.00457 µM,1.07 ± 0.015
same,relative viability,SW982; 0.01372 µM,1.07 ± 0.011
same,relative viability,SW982; 0.04115 µM,1.07 ± 0.0099
same,relative viability,SW982; 0.1235 µM,1.06 ± 0.013
same,relative viability,SW982; 0.3704 µM,1.07 ± 0.021
same,relative viability,SW982; 1.111 µM,1.06 ± 0.026
same,relative viability,SW982; 3.333 µM,1.02 ± 0.053
same,relative viability,SW982; 10 µM,1 ± 0.038
same,relative viability,G401; 0.00017 µM,1.06 ± 0.017
same,relative viability,G401; 0.00051 µM,1.03 ± 0.049
same,relative viability,G401; 0.00152 µM,1.05 ± 0.037
same,relative viability,G401; 0.00457 µM,1.074 ± 0.0083
same,relative viability,G401; 0.01372 µM,1.03 ± 0.054
same,relative viability,G401; 0.04115 µM,1.01 ± 0.032
same,relative viability,G401; 0.1235 µM,0.981 ± 0.027
same,relative viability,G401; 0.3704 µM,0.964 ± 0.012
same,relative viability,G401; 1.111 µM,0.955 ± 0.013
same,relative viability,G401; 3.333 µM,0.904 ± 0.019
same,relative viability,G401; 10 µM,0.887 ± 0.021
